Measurements: BindingDB's records for doi:10.1016/j.bmcl.2009.01.008 (Pfizer, 2009)
“And” between values parts separate entries of the source, which are not always exact repeats. Identical values can stand only once.

Experiment: Antagonist activity at human recombinant CCR5 expressed in human HeLa-P4 cells assessed as inhibition of human HeLa-P4 cells binding to HIV1 gp160 expressing CHO cells by cell-cell fusion assay

IC50	Structure (SMILES)
4.87 nM	Cc1nnc(C(C)C)n1C1CCN(C(C)C[C@H](NC(=O)C2CC[S+]([O-])CC2)c2ccccc2)CC1 (mixture of isomers) [(+/-)-1-Oxo-hexahydro-1lambda*4*-thiopyran-4-carboxylic acid{(S)-3-[4-(3-isopropyl-5-methyl-[1,2,4]triazol-4-yl)-piperidin-1-yl]-1-phenyl-butyl}-amide]
164 nM	Cc1nnc(C(C)C)n1C1CCN(C(C)C[C@H](NC(=O)C2CCOCC2)c2ccccc2)CC1 (mixture of isomers) [(+/-)-N-((1S)-3-(4-(3-isopropyl-5-methyl-4H-1,2,4-triazol-4-yl)piperidin-1-yl)-1-phenylbutyl)tetrahydro-2H-pyran-4-carboxamide]
49.9 nM	Cc1nnc(C(C)C)n1C1CCN([C@@H](C)C[C@H](NC(=O)C2CCC(F)(F)CC2)c2ccccc2)CC1 [4,4-difluoro-N-((1S,3S)-3-(4-(3-isopropyl-5-methyl-4H-1,2,4-triazol-4-yl)piperidin-1-yl)-1-phenylbutyl)cyclohexanecarboxamide]
3.93 nM	Cc1nnc(C(C)C)n1C1CCN(C(C)C[C@H](NC(=O)C2CC2)c2ccccc2)CC1 (mixture of isomers) [(+/-)-N-((1S)-3-(4-(3-isopropyl-5-methyl-4H-1,2,4-triazol-4-yl)piperidin-1-yl)-1-phenylbutyl)cyclopropanecarboxamide]
0.513 nM	Cc1nnc(C(C)C)n1C1CCN(C(C)C[C@H](NC(=O)C2CCCCC2)c2ccccc2)CC1 (mixture of isomers) [(+/-)-N-((1S)-3-(4-(3-isopropyl-5-methyl-4H-1,2,4-triazol-4-yl)piperidin-1-yl)-1-phenylbutyl)cyclohexanecarboxamide]
0.137 nM	Cc1nnc(C(C)C)n1C1CCN(C(C)C[C@H](NC(=O)C2CCCC2)c2ccccc2)CC1 (mixture of isomers) [(+/-)-N-((1S)-3-(4-(3-isopropyl-5-methyl-4H-1,2,4-triazol-4-yl)piperidin-1-yl)-1-phenylbutyl)cyclopentanecarboxamide]

Second part, the molecule before the results:

Structure (SMILES)	IC50
CC(=O)N1CCC(C(=O)N[C@@H](CC(C)N2CCC(n3c(C)nnc3C(C)C)CC2)c2ccccc2)CC1 (mixture of isomers) [(+/-)-1-acetyl-N-((1S)-3-(4-(3-isopropyl-5-methyl-4H-1,2,4-triazol-4-yl)piperidin-1-yl)-1-phenylbutyl)piperidine-4-carboxamide]	28.7 nM
COC(=O)N[C@@H](CC(C)N1CCC(n2c(C)nnc2C(C)C)CC1)c1ccccc1 (mixture of isomers) [(+/-)-methyl(1S)-3-(4-(3-isopropyl-5-methyl-4H-1,2,4-triazol-4-yl)piperidin-1-yl)-1-phenylbutylcarbamate]	315 nM
Cc1nc(C(C)C)n(C2CC3CCC(C2)N3CC[C@H](NC(=O)C2CCC(F)(F)CC2)c2ccccc2)n1 (stereo partly drawn) [4,4-difluoro-N-((1S)-3-(3-(5-isopropyl-3-methyl-1H-1,2,4-triazol-1-yl)-8-azabicyclo[3.2.1]octan-8-yl)-1-phenylpropyl)cyclohexanecarboxamide]	1.4 nM
Cc1nnc(C(C)C)n1C1CCN(C(C)C[C@H](NC(=O)CC(F)(F)F)c2ccccc2)CC1 (mixture of isomers) [(+/-)-3,3,3-trifluoro-N-((1S)-3-(4-(3-isopropyl-5-methyl-4H-1,2,4-triazol-4-yl)piperidin-1-yl)-1-phenylbutyl)propanamide]	85.3 nM
Cc1nnc(C(C)C)n1C1CCN(C(C)C[C@H](NC(=O)N2CCOCC2)c2ccccc2)CC1 (mixture of isomers) [(+/-)-N-((1S)-3-(4-(3-isopropyl-5-methyl-4H-1,2,4-triazol-4-yl)piperidin-1-yl)-1-phenylbutyl)morpholine-4-carboxamide]	176 nM
Cc1nnc(C(C)C)n1C1CCN(C(C)C[C@H](NC(=O)COCC(F)(F)F)c2ccccc2)CC1 (mixture of isomers) [(+/-)-N-((1S)-3-(4-(3-isopropyl-5-methyl-4H-1,2,4-triazol-4-yl)piperidin-1-yl)-1-phenylbutyl)-2-(2,2,2-trifluoroethoxy)acetamide]	52.8 nM
Cc1nnc(C(C)C)n1C1CCN(C(C)C[C@H](NC(=O)C2CCS(=O)(=O)CC2)c2ccccc2)CC1 (mixture of isomers) [(+/-)-1,1-Dioxo-hexahydro-1lambda*6*-thiopyran-4-carboxylic acid{(S)-3-[4-(3-isopropyl-5-methyl-[1,2,4]triazol-4-yl)-piperidin-1-yl]-1-phenyl-butyl}-amide]	6.12 nM
Cc1nnc(C(C)C)n1C1CCN(C(C)C[C@H](NC(=O)N2CCN(C)CC2)c2ccccc2)CC1 (mixture of isomers) [(+/-)-N-((1S)-3-(4-(3-isopropyl-5-methyl-4H-1,2,4-triazol-4-yl)piperidin-1-yl)-1-phenylbutyl)-4-methylpiperazine-1-carboxamide]	187 nM
Cc1nnc(C(C)C)n1C1CCN(C(C)C[C@H](NC(=O)C2CC(F)(F)C2)c2ccccc2)CC1 (mixture of isomers)	1.3 nM and 0.38 nM
Cc1nnc(C(C)C)n1C1CCN(C(C)C[C@H](NC(=O)C(C)C)c2ccccc2)CC1 (mixture of isomers) [(+/-)-N-((1S)-3-(4-(3-isopropyl-5-methyl-4H-1,2,4-triazol-4-yl)piperidin-1-yl)-1-phenylbutyl)isobutyramide]	3.11 nM
Cc1nnc(C(C)C)n1C1CCN([C@H](C)C[C@H](NC(=O)C2CC(F)(F)C2)c2ccccc2)CC1 [3,3-difluoro-N-((1S,3R)-3-(4-(3-isopropyl-5-methyl-4H-1,2,4-triazol-4-yl)piperidin-1-yl)-1-phenylbutyl)cyclobutanecarboxamide]	0.48 nM
Cc1nnc(C(C)C)n1C1CCN(C(C)C[C@H](NC(=O)CC2CC2)c2ccccc2)CC1 (mixture of isomers) [(+/-)-2-cyclopropyl-N-((1S)-3-(4-(3-isopropyl-5-methyl-4H-1,2,4-triazol-4-yl)piperidin-1-yl)-1-phenylbutyl)acetamide]	3.16 nM
CC(=O)N[C@@H](CC(C)N1CCC(n2c(C)nnc2C(C)C)CC1)c1ccccc1 (mixture of isomers) [(+/-)-N-((1S)-3-(4-(3-isopropyl-5-methyl-4H-1,2,4-triazol-4-yl)piperidin-1-yl)-1-phenylbutyl)acetamide]	89.2 nM
